Experiments:
HepG2 cells = test: Cytotoxicity assay (LDH release); format: cell-based; settings: 48 hours, 0.1 to 100 μM
Method: This experiment was designed to obtain a preliminary assessment of cytotoxicity.
HepG2 cells were plated in 96-well cell culture plates and allowed to attach overnight at 37° C., 5% CO2 in EMEM+10% FBS. Treatments were made in complete media (EMEM+10% FBS) and included a dilution series of test compounds from 0.1 to 100 μM. Known cytotoxin cerivastatin was used as a positive assay control and prepared at a final concentration of 0.5 μM.
Growth media was replaced with treatment media (EMEM+10% FBS containing test compound dissolved in DMSO) and cells were incubated with test compounds for 48 hours. At the end of the incubation period, supernatant media from each well was transferred to a new plate and LDH assay working solution was added. LDH assay solution undergoes a colorimetric reaction in proportion to the amount of lactate dehydrogenase (an intracellular protein that was only found in the media in the presence of lysed cells) in the media. Color reaction was quantified by measurement of absorbance at a wavelength of 490 nm.
The signal range of the assay was determined by no manipulation in a negative control treatment and full lysis of all cells in a lysis control sample. Compounds that increase the level of cytotoxicity more than 20% above negative control samples were considered cytotoxic in this assay.

[1] = Parallel artificial membrane permeability assay (PAMPA); format: in vitro ADME; settings: PBS, room temperature
Method: Bioavailable drugs must permeate the cellular membranes of the lining of the digestive tract. To estimate the penetrability of exemplary compounds, the in vitro parallel artificial membrane permeability assay (PAMPA) was utilized.
Test compounds must have a standard curve in the final read plate to determine partitioned concentration of each drug. A 6-point standard curve was prepared for each compound from 0 to 200 μM in phosphate-buffered saline (PBS).
Test compound solution (300 μL in PBS) was added to the donor (bottom) well of the PAMPA plate in 5 replicates and PBS vehicle (200 μL) was added to the acceptor (top) wells of appropriate wells to match the loading of the donor plate. The bottom and top of the PAMPA plates were then sandwiched together. The PAMPA plates were then incubated at room temperature for 5 hours. After incubation, 150 μL of donor solution was added to a UV compatible plate containing the corresponding standard curve. 150 μL of acceptor well solution was added adjacent to the corresponding standard curve and donor well samples for that compound. The plate was then read using a UV plate reader.
Permeability and membrane retention were then calculated based on the following formulas:
Permeability (cm/s): (Pe)(cm/s)={−ln [1−CA(t)/Ceq]}/[A*(1/VD+1/VA)*t] (equation 1) • where: • A=filter area (0.3 cm^2); • VD=donor well volume (0.3 mL); • VA=acceptor well volume (0.2 mL); • t=incubation time (seconds); • CA(t)=compound concentration in acceptor well at time t; • CD(t)=compound concentration in donor well at time t; and • Ceq=[CD(t)*VD+CA(t)*VA]/(VD+VA).
Membrane Retention (R)=1−[CD(t)*VD+CA(t)*VA]/(C0*VD) (equation 2) • where: • CD(t), VD, CA(t), and VA are as defined for equation 1, and • C0=initial concentration in donor well (200 uM).

HGF/MET system = target: T1, HGF/MET system (Homo sapiens, UniProt P08581+P14210); test: Phospho-MET ELISA; format: cell-based; design: key: − indicates that the compound failed to significantly augment MET phosphorylation; + indicates maximum potency at or above 100 nM; ++ indicates maximum potency at or above 10 nM; +++ indicates maximum potency at or above 1 nM; ++++ indicates maximum potency at or above 0.1 nM; settings: HEK293 cells, 1 ng/mL recombinant HGF, 15 minutes, pMET ELISA
T1 construct: HEK293 cells were prepared by passage into 6-well multi-plates; endogenous in cells; host or cells: HEK293
T1 sequence (P08581 308-1390 limits assumed): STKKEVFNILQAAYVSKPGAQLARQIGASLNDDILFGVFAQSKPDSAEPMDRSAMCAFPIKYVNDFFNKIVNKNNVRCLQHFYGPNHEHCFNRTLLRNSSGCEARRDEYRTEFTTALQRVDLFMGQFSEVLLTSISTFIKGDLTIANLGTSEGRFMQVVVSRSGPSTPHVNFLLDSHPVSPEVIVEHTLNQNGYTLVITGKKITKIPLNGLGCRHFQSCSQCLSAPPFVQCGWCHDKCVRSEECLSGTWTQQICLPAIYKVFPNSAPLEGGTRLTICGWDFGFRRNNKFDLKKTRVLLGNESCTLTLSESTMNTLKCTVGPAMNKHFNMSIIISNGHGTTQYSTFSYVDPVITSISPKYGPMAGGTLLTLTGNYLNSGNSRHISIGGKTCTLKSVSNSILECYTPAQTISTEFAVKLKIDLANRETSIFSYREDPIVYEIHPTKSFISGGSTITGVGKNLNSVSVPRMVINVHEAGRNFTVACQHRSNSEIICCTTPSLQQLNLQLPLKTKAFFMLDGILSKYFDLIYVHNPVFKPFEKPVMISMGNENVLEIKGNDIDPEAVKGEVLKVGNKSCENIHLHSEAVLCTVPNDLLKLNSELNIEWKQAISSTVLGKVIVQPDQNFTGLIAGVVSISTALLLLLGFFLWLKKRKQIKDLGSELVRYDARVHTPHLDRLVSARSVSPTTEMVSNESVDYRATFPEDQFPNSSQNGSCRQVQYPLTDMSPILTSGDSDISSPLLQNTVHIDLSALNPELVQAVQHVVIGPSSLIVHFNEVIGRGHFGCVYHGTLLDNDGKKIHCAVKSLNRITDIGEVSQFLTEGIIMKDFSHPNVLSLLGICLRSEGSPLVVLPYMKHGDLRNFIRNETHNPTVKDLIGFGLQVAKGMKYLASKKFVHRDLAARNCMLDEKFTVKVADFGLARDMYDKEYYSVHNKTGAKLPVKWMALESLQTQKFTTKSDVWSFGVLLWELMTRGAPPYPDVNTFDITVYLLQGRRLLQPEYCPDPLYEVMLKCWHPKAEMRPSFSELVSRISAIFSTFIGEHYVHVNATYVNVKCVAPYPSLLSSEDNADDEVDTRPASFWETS
T1 sequence (P14210 32-494 limits assumed): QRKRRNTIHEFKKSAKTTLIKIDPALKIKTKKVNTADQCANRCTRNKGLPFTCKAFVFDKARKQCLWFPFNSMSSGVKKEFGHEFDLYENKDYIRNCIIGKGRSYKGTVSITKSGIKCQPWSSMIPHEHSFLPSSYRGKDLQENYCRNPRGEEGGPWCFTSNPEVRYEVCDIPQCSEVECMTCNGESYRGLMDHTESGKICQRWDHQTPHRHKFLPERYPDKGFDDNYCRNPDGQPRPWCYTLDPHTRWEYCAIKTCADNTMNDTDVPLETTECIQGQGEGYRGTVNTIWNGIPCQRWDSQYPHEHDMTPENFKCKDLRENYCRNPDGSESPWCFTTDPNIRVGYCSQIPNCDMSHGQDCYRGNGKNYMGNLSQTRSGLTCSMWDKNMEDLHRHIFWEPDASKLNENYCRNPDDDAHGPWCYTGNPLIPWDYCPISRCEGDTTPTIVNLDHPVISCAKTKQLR
Method: Compounds were screened for potency towards the HGF/MET system using phospho-MET (pMET) ELISA kits (Cell Signaling). pMET levels were detected in samples having low (1 ng/mL) and high (10 ng/mL) concentrations of HGF.
HEK293 cells were prepared by passage into 6-well multi-plates and grown at 37° C. at 5% CO2 in DMEM+10% FBS until approximately 90% confluent. Cells were then starved for at least 8 hours in serum-free growth media.
Exemplary compounds were prepared in DMEM+0.1% FBS, diluted and added to treatment media with 1 ng/mL recombinant HGF protein (R&D Systems). Cells were incubated in triplicate at 37° C. and 5% CO2 for 15 minutes. Samples were then treated with 180 μL ice-cold RIPA (radioimmunoprecipitation assay) buffer and cells were lysed on ice for 15 minutes. Lysates were cleared by centrifugation at 16,000-g for 15 minutes and the supernatant was retained. Samples were normalized using a BCA assay of lysates to determine protein concentrations across the samples.
Between 50 and 100 μg total protein lysate was loaded into ELISA wells in pMET Sandwich ELISA kit (Cell Signaling Catalog #7227C), ensuring equal protein load in each well. The ELISA was processed according to manufacturer's instructions. After color developed, absorbance was read on an optical plate reader at 450 nm.
Potency measurements were determined using peak efficacy by scaling test compound dose treatments along a scale of 1-10 between 1 ng/mL and 10 ng/mL HGF doses according to the following formula: […]
where y is the normalized data-point, x is the raw data point, A is the mean HGF at 1 ng/mL, and B is the mean HGF at 10 ng/mL.

[2] = Turbidimetric solubility assay; format: physicochemical; settings: aqueous buffer, kinetic from dmso stock, PBS, 37° C., absorbance 620 nm
Method: Aqueous solubility is a critical drug property that helps to predict bioavailability. Generally, compounds with aqueous solubility <100 μg/ml are poor drugs.
To assess a compound's solubility by turbidity, test compounds were first dissolved in organic solvent (DMSO) at a concentration of 10 mM. This compound solution was then diluted in aqueous solvent (PBS) in a dilution series from […] in a 96-well assay plate. Solutions were incubated at 37° C. for 2 hours.
In wells with test compounds over their solubility limit, the compound will precipitate, effectively blocking the passage of light and thus increasing the absorbance signal of UV light at a wavelength of 620 nm. Compounds were considered insoluble at a tested concentration if turbidity raises the absorbance more than 10% above control reads.

MDCK cells = test: Cell scattering behavior assay; format: cell-based; design: key: − indicates that the compound failed to significantly promote cell scattering behavior; + indicates maximum potency at or above 100 nM; ++ indicates maximum potency at or above 10 nM; +++ indicates maximum potency at or above 1 nM; ++++ indicates maximum potency at or above 0.1 nM; settings: 5 ng/mL HGF, 24 hours, normalized particle count vs HGF alone
Method: MDCK cells were grown under normal conditions and observed to spontaneously form tight colonies as they proliferate. MDCK cells respond to HGF treatment by moving away from each other (scattering), which is quantified to assess the amount of HGF/MET activation in the cell population. In this experiment, MDCK cells were plated in a 96-well format, treated with HGF and exemplary compounds, fluorescently stained, imaged in large fields, and scattering behavior was quantified. Quantification was determined by analyzing the number of continuous groups of cells compared to the total stained area imaged (normalized particle counts).
MDCK cells were plated at low density in black-walled imaging plates and allowed to attach overnight at 37° C. and 5% CO2 in DMEM+10% FBS. Cells were then starved to 2 hours in DMEM without FBS (“starve media”). Samples containing exemplary compounds were prepared in DMEM without FBS and included 5 ng/mL HGF protein (“treatment media”). A control curve was also prepared for each plate using HGF concentrations of 0, 5, 10, and 20 ng/mL. Starve media was replaced with treatment media and cells were incubated for 24 hours at 37° C. and 5% CO2.
After incubation, cells were fixed by replacing treatment media with cold ethanol and incubating for 20 minutes at 4° C. Cells were then rehydrated by washing with PBS and then with stain solution (fluorescent wheat germ agglutinin; WGA488 at 20 μg/mL in PBS). Cells were incubated with stain solution 30 minutes at room temperature after which stain solution was replaced with fresh PBS.
Fields of cells were imaged using an iCyte high content imager in the green wavelength. Images were converted to binary and analyzed for particle size and particle count. For the purpose of analysis, an individual cell touching no other cells or separated colonies of cells were identified as particles, and particle counts were normalized by the total signal area to account for differences in cell number. […] Compound potency was assessed by statistical increase in normalized particle count compared to HGF treatment alone.

SMILES | Papp at 5 h, 200 µM [1] | solubility at 2 h [2] | Cytotoxicity (HepG2 cells) | Potency (augmentation of MET phosphorylation) (HGF/MET system) | Potency (cell scattering) (MDCK cells) | Permeability ([1]; 5 hours)
CCC(C)N1CC2N(Cc3ccc(O)cc3)CCC(=O)N2CC1=O (stereo not drawn) [Compound 9] | > 2 ×10⁻⁶ cm/s | > 300 µM | ++++ (++++ indicates non-toxic at 100 μM) | − | − | 
CCC(C)CN1CC2N(Cc3ccc(OC(F)F)cc3)CCC(=O)N2C(CC(=O)O)C1=O (stereo not drawn) [Compound 49, 2-(1-(4-(difluoromethoxy)benzyl)-8-(2-methylbutyl)-4,7-dioxooctahydro-2H-pyrazino[1,2-a]pyrimidin-6-yl)acetic acid] | > 2 ×10⁻⁶ cm/s | > 300 µM | ++++ (++++ indicates non-toxic at 100 μM) | ++++ (++++ indicates maximum potency at or above 0.1 nM) | ++++ (++++ indicates maximum potency at or above 0.1 nM) | 
CCC(C)CN1CC2N(Cc3ccc(F)cc3)CCC(=O)N2C(C)C1=O (stereo not drawn) [Compound 42] | > 2 ×10⁻⁶ cm/s | > 300 µM | ++++ (++++ indicates non-toxic at 100 μM) | ++++ (++++ indicates maximum potency at or above 0.1 nM) | +++ (+++ indicates maximum potency at or above 1 nM) | 
CCC(C)CN1CC2N(C(=O)c3ccc(O)cc3)CCC(=O)N2[C@@H](C)C1=O (stereo partly drawn) [Compound 3a] |  | > 300 µM |  | − | − | +++ (+++ indicates permeability below 2 × 10^−6 cm/s)
CCC(C)CN1CC2N(C(=O)c3ccc(O)nc3)CCC(=O)N2[C@@H](C)C1=O (stereo partly drawn) [Compound 4a] | > 10 ×10⁻⁶ cm/s | > 300 µM | ++++ (++++ indicates non-toxic at 100 μM) | + (+ indicates maximum potency at or above 100 nM) | + (+ indicates maximum potency at or above 100 nM) | 
CC1C(=O)N(CCS(C)(=O)=O)CC2N(C(=O)c3ccc(OC(F)F)cc3)CCC(=O)N12 (stereo not drawn) [Compound 36] |  | > 300 µM |  | − | − | 
CCC(C)CN1CC2N(C(=O)c3ccc(Cl)cc3)CCC(=O)N2C(C)C1=O (stereo not drawn) [Compound 10, 1-(4-chlorobenzoyl)-6-methyl-8-(2-methylbutyl)hexahydro-4H-pyrazino[1,2-a]pyrimidine-4,7(6H)-dione] |  | > 300 µM |  | − | − | 

Further lines, with some results ahead:

Papp at 5 h, 200 µM [1] | solubility at 2 h [2] | SMILES | Cytotoxicity (HepG2 cells) | Potency (augmentation of MET phosphorylation) (HGF/MET system) | Potency (cell scattering) (MDCK cells) | Permeability ([1]; 5 hours)
< 2 ×10⁻⁶ cm/s | > 100 µM | CC1C(=O)N(CCC2CCC2)CC2N(Cc3ccc(C(F)(F)F)c(Cl)c3)CCC(=O)N12 (stereo not drawn) [Compound 51] | +++ (+++ indicates non-toxic at 10 μM) | +++ (+++ indicates maximum potency at or above 1 nM) | +++ (+++ indicates maximum potency at or above 1 nM) | 
< 2 ×10⁻⁶ cm/s | > 100 µM | CCC(C)CN1CC2N(Cc3ccc(OC(F)F)cc3)CCC(=O)N2C(CC(C)C)C1=O (stereo not drawn) [Compound 53, 1-(4-(difluoromethoxy)benzyl)-6-isobutyl-8-(2-methylbutyl)hexahydro-4H-pyrazino[1,2-a]pyrimidine-4,7(6H)-dione] | +++ (+++ indicates non-toxic at 10 μM) | ++ (++ indicates maximum potency at or above 10 nM) | +++ (+++ indicates maximum potency at or above 1 nM) | 
< 2 ×10⁻⁶ cm/s | > 30 µM | CC1C(=O)N(CCC2CCCC2)CC2N(Cc3ccc(C(F)(F)F)c(Cl)c3)CCC(=O)N12 (stereo not drawn) [Compound 54] | +++ (+++ indicates non-toxic at 10 μM) | − | − | 

— patent US20240025903A1, “Bicyclic Compounds and Uses Thereof for the Treatment of Diseases” (Athira Pharma, Inc., priority 2020, published 2024)
